Assay results taken from the CheMixHub ionic liquid set.

Assay: xn = mol fraction of the nth substance listed

CCC[N+](C)(C)C.O=S(=O)([N-]S(=O)(=O)C(F)(F)F)C(F)(F)F + CCC[N+]1(C)CCCC1.O=S(=O)([N-]S(=O)(=O)C(F)(F)F)C(F)(F)F
101.3 kPa
Settings | viscosity [mPa·s]
283.15 K, x1 = 0.4 | 135
283.15 K, x1 = 0.6 | 148
283.15 K, x1 = 1 | 179
288.15 K, x1 = 0.6 | 113
288.15 K, x1 = 1 | 133
293.15 K, x1 = 0.4 | 81
303.15 K, x1 = 0.8 | 59
308.15 K, x1 = 0.2 | 42.2
308.15 K, x1 = 0.6 | 46.1
313.15 K, x1 = 0.6 | 38.2
318.15 K, x1 = 0.8 | 33.4
323.15 K, x1 = 0.8 | 28.3
323.15 K, x1 = 1 | 29.5
328.15 K, x1 = 0.2 | 22
328.15 K, x1 = 0.4 | 22.2
328.15 K, x1 = 0.8 | 24.2
333.15 K, x1 = 0.2 | 19.1
333.15 K, x1 = 0.4 | 19.3
333.15 K, x1 = 0.6 | 20.3
333.15 K, x1 = 1 | 21.7
343.15 K, x1 = 0.4 | 14.9
348.15 K, x1 = 0.4 | 13.3
353.15 K, x1 = 0.2 | 11.8
353.15 K, x1 = 0.6 | 12.3

CCCC[n+]1ccn(C)c1.N[C@@H](CO)C(=O)[O-] + O
100 kPa
Settings | electrical conductivity [S/m] | viscosity [mPa·s]
298.15 K, x1 = 0.8281 | 0.00761 | –
298.15 K, x1 = 0.8435 | 0.00711 | –
298.15 K, x1 = 0.8592 | 0.00675 | –
298.15 K, x1 = 0.8757 | 0.00646 | –
298.15 K, x1 = 0.8914 | 0.00609 | –
298.15 K, x1 = 0.8939 | – | 5180
298.15 K, x1 = 0.9163 | – | 5221
303.15 K, x1 = 0.8592 | 0.0107 | –
303.15 K, x1 = 0.8757 | 0.0101 | –
303.15 K, x1 = 0.8914 | 0.00973 | –
303.15 K, x1 = 0.8939 | – | 3031
308.15 K, x1 = 0.8757 | 0.0159 | –
313.15 K, x1 = 0.8939 | – | 1179
313.15 K, x1 = 0.939 | – | 1290
328.15 K, x1 = 0.8435 | 0.078 | –
328.15 K, x1 = 0.8521 | – | 338
328.15 K, x1 = 0.8592 | 0.0738 | –
328.15 K, x1 = 0.8939 | – | 367
328.15 K, x1 = 0.939 | – | 422
333.15 K, x1 = 0.8281 | 0.11 | –
333.15 K, x1 = 0.8592 | 0.1 | –
338.15 K, x1 = 0.8521 | – | 179.9
338.15 K, x1 = 0.8592 | 0.132 | –

NCC(=O)O + CCCCCCCCCCCCCCCC[n+]1ccccc1.[Cl-] + O
308.15 K, 101 kPa
Settings | electrical conductivity [S/m]
x1 = 2.018e-05, x2 = 0 | 6.2e-05
x1 = 0.0002, x2 = 0 | 0.000171
x1 = 0.0003639, x2 = 0 | 0.000413
x1 = 0.0009182, x2 = 0 | 0.00011
x1 = 0.001802, x2 = 0 | 0.000292

C[C@H](N)C(=O)[O-].C[N+](C)(C)CCO + CCCO
100 kPa
Settings | viscosity [mPa·s]
287.96 K, x1 = 0.0997 | 7.8
287.99 K, x1 = 0.2007 | 22.8
288.02 K, x1 = 0.3915 | 119
288.03 K, x1 = 0.6939 | 910
288.04 K, x1 = 0.6047 | 540
288.05 K, x1 = 0.7915 | 1505
288.06 K, x1 = 0.506 | 267
288.07 K, x1 = 0.9049 | 2669
288.08 K, x1 = 0.2998 | 53
288.1 K, x1 = 1 | 5100
289.23 K, x1 = 0.0997 | 7.7
289.24 K, x1 = 0.2007 | 22.2
289.26 K, x1 = 0.3915 | 114
289.28 K, x1 = 0.6939 | 850
289.29 K, x1 = 0.6047 | 510
289.3 K, x1 = 0.7915 | 1387
289.31 K, x1 = 0.506 | 251
289.31 K, x1 = 0.9049 | 2464
289.32 K, x1 = 0.2998 | 51
289.96 K, x1 = 1 | 3700
290.21 K, x1 = 1 | 4300
290.49 K, x1 = 0.0997 | 7.5
290.5 K, x1 = 0.2007 | 21.3
290.51 K, x1 = 0.3915 | 107
290.52 K, x1 = 0.6047 | 470
290.52 K, x1 = 0.6939 | 770
290.53 K, x1 = 0.506 | 231
290.53 K, x1 = 0.7915 | 1251
290.53 K, x1 = 0.9049 | 2210
290.54 K, x1 = 0.2998 | 49
291.71 K, x1 = 0.0997 | 7.2
291.72 K, x1 = 0.2007 | 20.4
291.72 K, x1 = 0.3915 | 99
291.73 K, x1 = 0.2998 | 46
291.73 K, x1 = 0.506 | 214
291.73 K, x1 = 0.6047 | 430
291.73 K, x1 = 0.6939 | 700
291.73 K, x1 = 0.7915 | 1121
291.73 K, x1 = 0.9049 | 1968
292.02 K, x1 = 1 | 3052
292.32 K, x1 = 1 | 3520
292.9 K, x1 = 0.0997 | 6.9
292.91 K, x1 = 0.2007 | 19.6
292.91 K, x1 = 0.2998 | 43
292.91 K, x1 = 0.3915 | 93
292.91 K, x1 = 0.6047 | 391
292.92 K, x1 = 0.506 | 199
292.92 K, x1 = 0.6939 | 640
292.92 K, x1 = 0.7915 | 1017
292.92 K, x1 = 0.9049 | 1771
294.08 K, x1 = 1 | 2544
294.09 K, x1 = 0.0997 | 6.7
294.09 K, x1 = 0.2007 | 18.8
294.09 K, x1 = 0.2998 | 41
294.09 K, x1 = 0.3915 | 86
294.09 K, x1 = 0.506 | 185
294.09 K, x1 = 0.6047 | 358
294.09 K, x1 = 0.9049 | 1589
294.1 K, x1 = 0.6939 | 580
294.1 K, x1 = 0.7915 | 920
294.41 K, x1 = 1 | 2896
295.27 K, x1 = 0.0997 | 6.5
295.27 K, x1 = 0.2007 | 18
295.27 K, x1 = 0.2998 | 38.9
295.27 K, x1 = 0.3915 | 81
295.27 K, x1 = 0.506 | 172
295.27 K, x1 = 0.6047 | 329
295.27 K, x1 = 0.6939 | 530
295.27 K, x1 = 0.7915 | 840
295.27 K, x1 = 0.9049 | 1438
296.14 K, x1 = 1 | 2140
296.45 K, x1 = 0.0997 | 6.3
296.45 K, x1 = 0.2007 | 17.3
296.45 K, x1 = 0.2998 | 36.9
296.45 K, x1 = 0.3915 | 76
296.45 K, x1 = 0.506 | 160
296.45 K, x1 = 0.6047 | 302
296.45 K, x1 = 0.6939 | 490
296.45 K, x1 = 0.7915 | 760
296.45 K, x1 = 0.9049 | 1298
296.48 K, x1 = 1 | 2402
297.63 K, x1 = 0.0997 | 6.1
297.63 K, x1 = 0.2007 | 16.6
297.63 K, x1 = 0.2998 | 35
297.63 K, x1 = 0.3915 | 71
297.63 K, x1 = 0.506 | 149
297.63 K, x1 = 0.6047 | 278
297.63 K, x1 = 0.6939 | 450
297.63 K, x1 = 0.7915 | 700
297.63 K, x1 = 0.9049 | 1174
298.2 K, x1 = 1 | 1806
298.54 K, x1 = 1 | 2000
298.8 K, x1 = 0.0997 | 6
298.8 K, x1 = 0.2007 | 16
298.8 K, x1 = 0.2998 | 33.4
298.8 K, x1 = 0.3915 | 67
298.8 K, x1 = 0.6047 | 257
298.81 K, x1 = 0.506 | 140
298.81 K, x1 = 0.6939 | 410
298.81 K, x1 = 0.7915 | 640

OCC(F)(F)F + CC[n+]1ccn(C)c1.N#C[N-]C#N
100 kPa, x2 = 0
Settings | viscosity [mPa·s]
298.15 K | 1.77
308.15 K | 1.38

CC(=O)[O-].[K+] + O + CCCC[n+]1ccn(C)c1.N#C[S-]
viscosity [mPa·s], 101 kPa
Settings | 298.15 K | 308.15 K | 313.15 K
x1 = 0.01175, x2 = 0.8368 | – | – | 4.625
x1 = 0.1054, x2 = 0.8943 | 3.195 | 2.485 | –

CC[N+](CC)(CC)CC.[Cl-] + CCCCCCCCCC(=O)O
100 kPa, x1 = 0.333
Settings | electrical conductivity [S/m] | viscosity [mPa·s]
293.15 K | 0.0223 | 275
303.15 K | 0.0338 | 185
313.15 K | 0.0498 | 128
323.15 K | 0.0718 | 90
333.15 K | 0.101 | 64.9

CCCO + CS(=O)(=O)[O-].C[N+](C)(CCO)CCO
101 kPa, x2 = 0
Settings | viscosity [mPa·s]
298.15 K | 1.95
303.15 K | 1.73
308.15 K | 1.545
313.15 K | 1.383
318.15 K | 1.247
323.15 K | 1.136

CCCn1cc[n+](C)c1.[Br-] + CC(=O)N(C)C
298.15 K, 101 kPa
Settings | viscosity [mPa·s]
x1 = 0.01714 | 1.124
x2 = 0.9358 | 1.653
x2 = 0.9583 | 1.383

CCCC[n+]1ccn(C)c1.N#C[S-] + CCCCCCO
101 kPa
Settings | viscosity [mPa·s]
298.15 K, x2 = 0.1505 | 36.2
308.15 K, x2 = 0.1505 | 24.6
308.15 K, x2 = 0.453 | 13.1
308.15 K, x2 = 0.9102 | 4.42
318.15 K, x2 = 0.6307 | 6.91
318.15 K, x2 = 0.9102 | 3.41
328.15 K, x2 = 0.6962 | 4.59
328.15 K, x2 = 0.7583 | 3.92
328.15 K, x2 = 0.8512 | 3.17
338.15 K, x2 = 0.0424 | 12
338.15 K, x2 = 0.3093 | 8.15
338.15 K, x2 = 0.453 | 6.07
338.15 K, x2 = 0.5773 | 4.76
348.15 K, x2 = 0.0424 | 9.56

CCCCCCCCCCCC[P+](CC)(CC)CC.N#Cc1ccc[n-]1 + OCCN(CCO)CCO
100 kPa
Settings | electrical conductivity [S/m] | viscosity [mPa·s]
293.15 K, x1 = 0.01 | 0.0023 | –
293.15 K, x1 = 0.035 | 0.0045 | 990
293.15 K, x1 = 0.207 | – | 880
293.15 K, x1 = 0.473 | – | 850
293.15 K, x1 = 0.583 | 0.0111 | –
298.15 K, x1 = 0.051 | – | 652
298.15 K, x1 = 0.207 | – | 585
298.15 K, x1 = 0.809 | – | 506
313.15 K, x1 = 0.051 | – | 189
313.15 K, x1 = 0.207 | – | 186
